Active and inactive are the calls of the source. No cut-off for these calls is given here.
Assays:
MKN-7 = test: Antiproliferative activity against human MKN7 cells after 48 hrs by SRB assay; type: functional; conditions: MKN-7, 48 h
DMS-114 = test: Antiproliferative activity against human DMS114 cells after 48 hrs by SRB assay; type: functional; conditions: DMS-114, 48 h
NCI-H226 = test: Antiproliferative activity against human NCI-H226 cells after 48 hrs by SRB assay; type: functional; conditions: NCI-H226, 48 h
A549 = test: Antiproliferative activity against human A549 cells after 48 hrs by SRB assay; type: functional; conditions: A549, 48 h
[1] = biological target: T1, DNA topoisomerase I (Bos taurus) (UniProt F1MN93); test: Inhibition of calf thymus DNA topoisomerase 1 assessed as reduction in enzyme-mediated relaxation of supercoiled pBR322 plasmid DNA at 10 uM after 30 mins by agarose gel electrophoresis
T1 sequence (whole entry): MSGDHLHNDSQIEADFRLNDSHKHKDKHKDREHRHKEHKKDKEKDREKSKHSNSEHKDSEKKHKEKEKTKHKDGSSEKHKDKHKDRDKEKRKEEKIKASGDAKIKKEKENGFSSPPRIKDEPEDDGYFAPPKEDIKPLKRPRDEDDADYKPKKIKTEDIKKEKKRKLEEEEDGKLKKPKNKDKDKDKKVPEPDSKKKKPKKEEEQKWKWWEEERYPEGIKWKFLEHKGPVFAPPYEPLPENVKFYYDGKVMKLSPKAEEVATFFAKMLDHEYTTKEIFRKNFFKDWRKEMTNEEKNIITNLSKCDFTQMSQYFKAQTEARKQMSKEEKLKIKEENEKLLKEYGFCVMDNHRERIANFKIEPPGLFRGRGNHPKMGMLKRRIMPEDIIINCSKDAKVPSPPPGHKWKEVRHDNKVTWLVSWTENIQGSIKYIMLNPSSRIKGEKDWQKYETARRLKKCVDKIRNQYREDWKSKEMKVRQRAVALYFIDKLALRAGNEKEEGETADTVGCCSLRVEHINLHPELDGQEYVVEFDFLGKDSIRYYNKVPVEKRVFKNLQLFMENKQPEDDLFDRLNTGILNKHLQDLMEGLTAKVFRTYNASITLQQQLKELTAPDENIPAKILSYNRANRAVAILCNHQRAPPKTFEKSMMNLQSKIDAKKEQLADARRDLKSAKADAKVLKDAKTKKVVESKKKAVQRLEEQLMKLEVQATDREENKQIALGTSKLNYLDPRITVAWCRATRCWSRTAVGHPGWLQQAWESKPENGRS

MKN-45 = test: Antiproliferative activity against human MKN45 cells after 48 hrs by SRB assay; type: functional; conditions: MKN-45, 48 h
St-4 = test: Antiproliferative activity against human St-4 cells after 48 hrs by SRB assay; type: functional; conditions: St-4, 48 h
HT-29 = test: Antiproliferative activity against human HT-29 cells after 48 hrs by SRB assay; type: functional; conditions: HT-29, 48 h
SNB-78 = test: Antiproliferative activity against human SNB78 cells after 48 hrs by SRB assay; type: functional; conditions: SNB-78, 48 h
[2] = Antiproliferative activity against human BSY1 cells after 48 hrs by SRB assay; type: functional; conditions: BSY-1, 48 h

COc1cc2c(ccc3c4c(=O)oc5cc(OC(=O)[C@@H](N)C(C)C)c(OC)cc5c4n(C)c23)cc1OC(=O)[C@@H](N)C(C)C.O=C(O)C(F)(F)F.O=C(O)C(F)(F)F
GI50 (MKN-7): 52.5 nM
GI50 (DMS-114): 4.37 nM
GI50 (NCI-H226): 89.1 nM
GI50 (A549): 52.5 nM
inhibition [1]: Active
GI50 (MKN-45): 105 nM
GI50 (St-4): 1000 nM
GI50 (HT-29): 955 nM
GI50 (SNB-78): 282 nM
GI50 [2]: 38 nM

From ChEMBL document CHEMBL4308908, “Lamellarin-inspired potent topoisomerase I inhibitors with the unprecedented benzo[g][1]benzopyrano[4,3-b]indol-6(13H)-one scaffold” (Bioorg Med Chem, 2019)
